The values below come from PubChem BioAssay AID1159557 (GlaxoSmithKline (GSK), 2015).

Active and inactive are the calls of the source. The rule behind the calls is not given here.

In the assay the test system is Trypanosoma brucei growth inhibition. The experiment in a line: trypanosome proliferation inhibitors (AID 1159557).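 Note: parasites exposed to compound for 48 h before the resazurin readout.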
With `CC1=C(C(=O)Nc2ccc(Cl)cc2)C(c2ccncc2)n2ncc(C(=O)Nc3ccccc3)c2N1` (stereo not drawn), the IC50 is 3.2 µM.

Take `COc1ccc(C(=O)Nc2ccc(NC(=O)CO)cc2)cc1`: the IC50 is 0.25 µM. For the compound `CC(c1ccc2c(c1)CCCC2)N(C)c1ncc2c(N)nc(N)nc2n1` (stereo not drawn), the IC50 is 16 µM.

Consider `NCC(Cc1ccccc1)NC(=O)c1cnc(-c2c[nH]c3ncccc23)s1` (stereo not drawn), for which the 50% inhibitory concentration (IC50) is 0.4 µM. The result for `CN(Cc1nc2c(C(=O)N3CCN(Cc4ccccc4)CC3)cccc2[nH]1)C1CCCc2cccnc21` (stereo not drawn) reads 0.63 µM; that for `COc1ccc(-c2cc(C)no2)cc1S(=O)(=O)Nc1ccc(C)c(C)c1`, 20 µM.

Consider `O=S(=O)(c1ccccc1C(F)(F)F)N1CCN(Cc2ccc(-n3ccnc3)cc2)CC1`, for which the IC50 is > 40 µM (inactive).

As to `O=C1CN(C2CCCc3c(OCc4ccncc4)cccc32)C(=O)N1C1CCCCC1` (stereo not drawn), the IC50 is 16 µM. Turning to `O=C(NCCc1ccn(-c2ccccc2)n1)C1CCCCC1`, the IC50 was 0.25 µM.

As to `O=C(CC1(O)C(=O)N(Cc2cccs2)c2ccc(Br)cc21)c1cccnc1` (stereo not drawn), the IC50 is 0.63 µM.

Regarding `Cc1ccccc1NS(=O)(=O)c1ccc2[nH]cc(C(=O)NC3CCCCC3)c(=O)c2c1`, the IC50 was 0.25 µM.

In the case of `COc1ccc(-c2cnc(NC(=O)c3cc(-c4ccccn4)n[nH]3)n2C)cc1`, the IC50 was 0.4 µM. As to `O=C(NC(CO)c1ccc(F)cc1)c1ccc(-c2c[nH]c3ncccc23)s1` (stereo not drawn), the IC50 is 0.25 µM. In the case of `COc1ccc(OC)c(NC(=O)c2ccc([N+](=O)[O-])o2)c1`, the IC50 is 0.016 µM. The same measure for `O=C(Nc1cccc(F)c1)N1CCC(Oc2cccc(-c3cccnc3)c2)CC1`: 25 µM; for `O=C(Nc1ccc(C(=O)N2CCCC2c2ccc3c(c2)OCCCO3)cc1)c1ccco1` (stereo not drawn): 0.2 µM.

With `O=C(Nc1ccc(S(=O)(=O)N2CCCC2)cc1)c1ccc([N+](=O)[O-])s1`, the IC50 is 0.16 µM. The same measure for `Cc1nc2c(-c3n[nH]c(-c4ccccc4N)n3)cccn2c1C`: 1 µM; for `O=C(Nc1nc(-c2ccccn2)cs1)C1CCc2ccccc2C1` (stereo not drawn): 3.2 µM.

As for `CC(=O)Nc1ccc(CN2CCC(N3CC(c4ccccc4)(c4ccccc4)OCC3=O)CC2)cc1`, the IC50 is 0.32 µM.

For the compound `COc1ccc2c(Cl)c(C(=O)N3CCC3)sc2c1Cl`, the IC50 was 20 µM. On to `CCc1cccc(CC)c1-n1c(SCC(=O)N2CC(=O)Nc3ccccc32)nnc1-c1cccnc1`, for which the IC50 was 0.5 µM.

Regarding `CCCCn1c(=O)c2c(N)onc2n(CCCC)c1=O`, the IC50 was 0.63 µM. Turning to `CCN(Cc1nc2ccc(C(=O)N3CCN(c4ncccn4)CC3)cc2[nH]1)C1CCCc2cccnc21` (stereo not drawn), the IC50 was 2.5 µM. As to `COc1cc(OC)cc(C(NS(=O)(=O)c2ccc(Cl)c(C(F)(F)F)c2)c2nccn2C)c1` (stereo not drawn), the IC50 was 7.9 µM. In the case of `CCCN(Cc1ccc(OC)c(OC)c1)Cc1cc(=O)c2c(C)cc(C)cc2[nH]1`, the IC50 is 25 µM. For the compound `OCCCNc1nc(Nc2ccncc2)nc2ccccc12`, the IC50 is 25 µM.

As for `CCOC(=O)c1cn[nH]c1S(=O)(=O)N1CCC1c1ccccc1` (stereo not drawn), the IC50 was 0.63 µM.

`CC(=O)Nc1cccc(Nc2ncnc3nc[nH]c23)c1`: the IC50 was 0.13 µM. For `O=C(COc1ncnc2cc([N+](=O)[O-])ccc12)NC(=O)NC1CCCCC1`, the IC50 was 6.3 µM. Turning to `O=C(CSc1ccc(-c2ccccn2)nn1)Nc1ccc(Cl)cc1`, the IC50 was 10 µM. Take `Cc1nn2c(NCCCO)c3c(nc2c1-c1cccs1)CCC3`: the IC50 is 0.32 µM. With `O=C1CN(Cc2ccco2)C2CS(=O)(=O)CC2N1c1ccc(Cl)cc1` (stereo not drawn), the IC50 is 0.32 µM. Consider `N#Cc1cccc(CNc2ccc(-c3cnn(CC4CC4)c(=O)c3C#N)cc2)c1`, for which the IC50 is 10 µM. On to `O=C(Cn1cnc2cc([N+](=O)[O-])ccc2c1=O)NCCc1ccc(Cl)cc1Cl`, for which the IC50 is 13 µM.

With `Cc1ccccc1NS(=O)(=O)c1ccc2[nH]cc(C(=O)NC3CCCC3)c(=O)c2c1`, the IC50 is 0.32 µM. The result for `CNc1c(C(N)=O)c(-c2ccc3scnc3c2)nn1CC(F)(F)F` reads 32 µM. For `O=C(CSc1nnc(-c2ccc3c(c2)OCO3)o1)N(Cc1ccco1)CC(F)(F)F`, the IC50 is > 40 µM (inactive). Regarding `O=C(CC1(O)C(=O)N(Cc2ccccc2)c2ccc(Br)cc21)c1cccnc1` (stereo not drawn), the IC50 was 0.63 µM. The result for `Nc1nonc1-c1nc2cncc(C(=O)N3CC[C@H](N)C3)c2n1CC1CC1` reads 0.63 µM. Regarding `OC1CCC(Nc2nccc(-c3sc(C4CCOCC4)nc3-c3ccc(F)c(F)c3)n2)CC1` (stereo not drawn), the IC50 is 2 µM. Regarding `O=C(NCCc1cccnc1)c1csc(-c2ccccc2)n1`, the IC50 was 25 µM.

As for `Cc1ccc2ccc(C(Nc3ccccn3)c3cccnc3)c(O)c2n1` (stereo not drawn), the IC50 is 5 µM. Regarding `CN1CCC(N(C)c2nccc(N3CCN(C(=O)c4cccc(-c5cccnc5)c4)CC3)n2)CC1`, the IC50 is 0.79 µM. Consider `COc1ccc([N+](=O)[O-])cc1NC(=O)Nc1cccc(Cl)c1`, for which the half-maximal inhibitory concentration (IC50) is 6.3 µM. For `CC(Cn1ccnc1)NC(=O)C=Cc1ccc(Cl)cc1` (stereo not drawn), the IC50 is > 40 µM (inactive). As to `CCCCN(C(=O)c1ccc(NC(=O)C(C)C)cc1)c1ccccc1`, the IC50 was 16 µM. On to `CN1CCN(c2nc(-c3ccc(Cl)cc3)c3c(N)n(C)nc3n2)CC1`, for which the IC50 was 13 µM. `O=C(Nc1ccc(Br)c(Cl)c1)Nc1ccc2c(c1)OCO2`: the IC50 is 7.9 µM. Turning to `COc1cccc(C(=O)[C@H]2C[C@@H]2CN(Cc2cccnc2)Cc2cccnc2)c1`, the half-inhibitory concentration (IC50) is 32 µM. With `O=C(CCCNC(=O)c1ccc(Cl)cc1)Nc1nc(-c2ccccn2)cs1`, the IC50 was 7.9 µM. For the compound `O=C(c1ccc(Cl)cc1)c1ccc(OC(=O)N2CCOCC2)cc1`, the IC50 is 7.9 µM. Regarding `O=C(CCc1ccc(-c2ccccc2)o1)N1CCN(c2ccc(O)cc2)CC1`, the IC50 is 25 µM. For the compound `Cc1cc(C)n(-c2nc(NC(C)C)nc(NC(C)(C)C)n2)n1`, the IC50 is 20 µM. The same measure for `Cc1cc2ncn(-c3ccc([N+](=O)[O-])cc3C#N)c2cc1C`: 20 µM. On to `Cc1cc(Nc2ccc(C#N)c(Cl)c2C)n[nH]1`, for which the IC50 is 0.0079 µM.

As to `Cc1[nH]n2c(=O)c3c(nc2c1-c1ccc(Br)cc1)CCCC3`, the IC50 is 0.4 µM. The same measure for `CCc1cc(C(=O)Nc2nccn2-c2ccccc2)cs1`: 3.2 µM. Regarding `Cc1cc(N2CCc3ccccc3C2)nc(Nc2ccc(S(=O)(=O)N3CCOCC3)cc2)n1`, the IC50 is 32 µM.

`CNC(=O)C1Cc2ccccc2N1C(=O)COc1cccc(OC)c1` (stereo not drawn): the IC50 was 0.63 µM.

As to `CCc1ccccc1[C@@H](C)NC(=O)c1cnc2c(cnn2CC)c1NC1CCN(C(N)=O)CC1`, the IC50 was 0.25 µM. With `Cc1nccn1C1CCCN(C(=O)c2cc3c(F)cccc3s2)C1` (stereo not drawn), the IC50 was > 40 µM (inactive). Consider `CCC(=O)Nc1ccc(-c2nc3ccc(Cl)cc3[nH]2)cc1`, for which the IC50 was 6.3 µM. On to `O=C1CN(C(=O)c2cccc(Nc3ncc(-c4ccc5c(c4)OCO5)cn3)c2)CCN1`, for which the IC50 was > 50 µM (inactive).

Regarding `Cc1ccccc1NS(=O)(=O)c1ccc2[nH]cc(C(=O)NC3CCCC(C)C3C)c(=O)c2c1` (stereo not drawn), the IC50 was 0.32 µM. Turning to `CC(Cn1ccnc1)NC(=O)COc1ccc(Cl)c(Cl)c1` (stereo not drawn), the IC50 is > 40 µM (inactive). On to `COc1ccc(NC(=O)c2ccc(NC(=O)CN(c3ccccc3C)S(C)(=O)=O)cc2)cc1`, for which the IC50 was 0.2 µM. `Cc1nc(N2CC(C)OC(C)C2)sc1C(=O)Nc1ccc2c(c1)OCO2` (stereo not drawn): the IC50 was 40 µM.

The IC50 is the point on the concentration scale where inhibition reaches its midpoint.
